# Source: article PMC10518340, “Secreted LRPAP1 binds and triggers IFNAR1 degradation to facilitate virus evasion from cellular innate immunity” (Signal Transduction and Targeted Therapy, 2023)
# Legend:
# [1] = system: HSV-1; experiment: HSV-1 infection of RD cells (viral DNA, TCID50, viral protein, CPE)
# [2] = system: EV71; experiment: EV71 infection of RD cells (viral RNA, titer, viral protein, CPE); details: RD cells, 9 h; plasmid, recombinant protein or peptide pre-treatment; viral RNA / titer
# [3] = system: IFNAR1; experiment: IFNAR1 protein level, immunoblot, HEK-293T cells; format: cell-based, human
# [4] = system: HCoV-OC43; experiment: HCoV-OC43 infection of RD cells (viral RNA, TCID50, CPE); details: antibody 0.5 μg/ml; peptides 1 μM or rLRPAP1 200 nM pre-treatment 1 h, 72 h; siRNA 24 h then MOI 1, 72 h
# [5] = system: IFNAR1; experiment: IFNAR1 protein level, HepAD38 cells, immunoblot; format: cell-based; details: siRNA or overexpression 48 h; LF 400 nM 24 h
# [6] = system: extracellular domain of IFNAR1; experiment: Pull-down / co-immunoprecipitation of LRPAP1 with IFNAR1; format: binding; details: HEK-293T cells ectopic-expressing LRPAP1 and IFNAR1; also mouse cerebrum
# Procedure: (§1) The interaction of LRPAP1, LRP1 and IFNAR1 was examined by immunoprecipitation using a protocol described as followed. HEK293T cells were cultured at around 90% confluence in a 100 mm tissue culture dish. Cells were washed with 10 ml of PBS and harvested in 0.5 ml of ice-cold lysis buffer ([…], pH 7.4, 1% SDS, 1% NP-40) and Protease Cocktail (Roche) and PhoSTOP (Roche). The total extract was pre-cleared with 10 μg normal rabbit IgG (Cell signaling, 2729 S) and 20 μl of protein A/G plus-agarose (Santa Cruz Biotechnology) at 4 °C on a rotor for 1 h. After gently removed protein A/G agarose beads by centrifugation at 500 rcf for 2 min, 0.2 mg of total extract was immunoprecipitated with the indicated antibodies overnight at 4 °C on a rotor. Approximately 20 μl of protein A/G plus-agarose (Santa Cruz Biotechnology) was added at 4 °C for one hour. Then, the beads were washed three times with washing buffer (lysis buffer contained 0.1% NP-40). The pellet was suspended with 40 μl PBS and 10 μl of 5× SDS-PAGE loading buffer and the samples were boiled for 10 min.
# The interaction of LRPAP1, LRP1 and IFNAR1 was examined by immunoprecipitation using a protocol described as followed. HEK293T cells were cultured at around 90% confluence in a 100 mm tissue culture dish. […]
# [7] = system: 2A^pro; experiment: MST binding to recombinant 2A protease (baits r2A and 2Am; MS and MST); set-up: species or system EV71; details: recombinant 2A^pro (r2A) and 2A^C110A (2Am) as baits
# Procedure: (§2) The polyhistidine (His)-tag peptides, the recombinant 2A, the recombinant 2Am, and ECD-IFNAR1, were incubated with the RED-tris-NTA 2nd Generation dye (Cat#MO-L018, Nanotemper-Technologies) for 30 min, respectively. Then these fluorescently labeled peptides were mixed with the serial diluted ligands, including the scramble peptide, the commercial penetrating peptide (RV5), LRPAP1 peptides (RAPD1P1, RAPD1P2), or rLRPAP1 without His-tag, respectively. The mixtures were captured by Monolith^TM NT.115 Series capillaries (Cat# MO-K022). Capillaries were then subjected to Monolith NT for MST analysis. According to Monolith guidelines, signal-to-noise (S/N) ratios greater than 5.0 were indicated as the valid binding.
# as §2, with “NT. For” for “NT for”, “According to Monolith guidelines, signal-to-noise (S/N) ratios greater than 5.0 were indicated as the valid binding.” left out
# [8] = system: HBV; experiment: HBV level in HepAD38 cells, immunoblot; format: cell-based; details: HepAD38, siRNA or overexpression 48 h
# [9] = system: IFNAR1; experiment: IFNAR1 ubiquitination, immunoprecipitation, HEK-293T cells; format: cell-based, human; details: ubiquitin, LRPAP1 and IFNAR1 overexpressed
# Procedure: as §1
# [10] = system: type I IFN signaling pathway; experiment: Interferon-stimulated gene (ISG) mRNA levels, RD cells; format: cell-based; details: excessive LRPAP1 expression
substance,measurement,setting,value
LDL-receptor-related protein-associated protein 1 [LRPAP1],HSV-1 CPE,"[1]; peptides 1 μM or rLRPAP1 200 nM pre-treatment 1 h, 24 h",more obvious cytopathic effect
same,HSV-1 DNA replication,"[1]; pre-treated 1 h, MOI 10, 24 h, RT-qPCR",promoted the DNA replication of HSV-1
same,EV71 infection,[2],strikingly promoted EV71 infection
same,IFNAR1 level on simultaneous expression of LRPAP1 and 2A^pro,[3]; co-expressed with 2A^pro,complete undetectability of IFNAR1 levels
same,IFNAR1 level,[3]; transfected cells (ectopic expression or siRNA),decreasing IFNAR1 to a marginal detectable level
same,HCoV-OC43 CPE,[4],more obvious cytopathic effects
same,IFNAR1 expression in HepAD38 cells,[5],decreased level of IFNAR1
same,interaction of LRPAP1 and IFNAR1 (co-immunoprecipitation),[6],confirmed the interaction of LRPAP1 and IFNAR1
same,interaction with 2A^pro,[7],interacts with 2A^pro
same,HBV level,[8],higher HBV loads
same,IFNAR1 ubiquitination,[9],dramatically increased IFNAR1 ubiquitination
same,type I IFN signaling pathway,[10],suppressing the type I IFN signaling pathway and the expression of downstream interferon-stimulated genes
